Assay results: patent US20250161422A1, “ARGINASE 2 VACCINE” (IO Biotech ApS, priority 2022, published 2025)

Key:
[1] = system: PBMCs from healthy donors or cancer patients; test: In vitro peptide stimulation of PBMCs and IFNγ ELISPOT; type: cell-based, human; conditions: for IFNγ ELISPOT response, screening: PBMCs of five healthy HLA-A2+ donors, restimulated after 12-14 days; for IFNγ ELISPOT response, validation (repetition): healthy donors, repeat ELISPOT (FIG. 5); for IFNγ ELISPOT response in 17 HDs: 17 healthy donors of undetermined HLA-type
Description: PBMCs from healthy donors or cancer patients were subjected to in vitro stimulation with ARG2-derived peptides by plating the cells with 10 μM peptide. The following day, the cells received low-dose IL-2 (120 U/ml) treatment. At 10-14 days after peptide stimulation, the cells were used for IFNγ ELISPOT. ELISPOT plates were coated with […] IFNγ capture antibody (MabTech) overnight. The next day, the plates were washed and blocked in X-vivo media followed by the plating of 2.5-3.5×10^5 PBMCs per well for ELISPOT, with and without restimulation with 5 μM peptide. A minimum of triplicate wells were set up pr. condition. The cells were incubated 14-16 hours before they were washed and a biotin-conjugated secondary antibody (Mabtech) was added, followed by a 2-hour incubation. Next, the cells were washed again, followed by incubation with streptavidin-conjugated alkaline phosphatase (Mabtech) for 1 hour. Finally, spots were developed by addition of BCIP/NBT substrate (Mabtech). Tap water was used to stop the reaction. Spots corresponding to IFNγ secretion were quantified by visualization on a CTL ImmunoSpot S6 Ultimate-V analyzer with ImmunoSpot software version 5.1. Peptide-specific IFNγ secreting cells were calculated by subtracting the average spot count in control wells from the average spot count in peptide-stimulated wells. […] Peptide pulsing was performed by incubating the target cells with 20 μM peptide for 1 hour, followed by two washes to remove unbound peptide. Effector cells with added peptide served as the positive control and […] plated without […] as the negative control. In ELISPOTs assays with immune cells as target cells, wells containing only effector cells were also included as controls. The average spot count from replicate wells was subtracted from the spot count of effector cells plated with the respective target cells. These 15 peptides ([…] to […]) were screened in peripheral blood mononuclear cells (PBMCs) from five healthy donors (HD), who were confirmed to be HLA-A2 positive (HLA-A2^+). PBMCs were stimulated with each peptide in vitro and restimulated in IFNγ ELISPOT after 12-14 days of culture.

[2] = system: PBMCs / peptide-specific T-cell cultures; test: Intracellular cytokine staining for TNFα and IFNγ; type: cell-based, human; conditions: for T-cell subset that responds (ICS for TNFα and IFNγ): peptide-stimulated healthy donor PBMCs
Description: PBMCs were in vitro stimulated with peptide as described above. At 10-14 days post-simulation, the cells were used for intracellular cytokine staining. […] After a 4-hour incubation period, the cells were washed and stained for the extracellular markers CD3-APC/H7, CD4-FITC, and CD8-PerCP, and dead cells were stained with FVS-510. Next, the cells were permeabilized using Fixation/Permeabilization buffer (Invitrogen), followed by staining with IFNγ-APC and TNFα-BV421. Data were acquired using a BD Canto II flow cytometer and analyzed using FlowJo.
(§1) ARG2-specific T-cell cultures were obtained by stimulation of PBMCs with ARG2-S05 peptide, followed by low-dose IL-2 (120 U/mL) the next day. At 12 days after peptide stimulation, the cells were re-stimulated with peptide, and IFNγ-secreting cells were isolated using magnetic beads. Next, these cells were expanded using a rapid expansion protocol, including feeder cells, CD3 antibody, and high-dose IL-2 (3000-6000 U/mL). On day 16-17, culture specificity was determined by stimulation with ARG2-S05 peptide and determination of the cytokine release by ICS.
To further characterize the ARG2-specific CD8^+ T cells, A2S05-specific T-cell cultures from four donors were established. Briefly, donor PBMCs were stimulated with A2S05 in vitro. 12 days later, peptide-specific T cells were re-stimulated and isolated using an IFNγ capture kit. IFNγ-producing cells were expanded using a rapid expansion protocol and the specificity was examined at 16-17 days after expansion by ICS for IFNγ and TNF.

PBMCs = test: Ex vivo IFNγ ELISPOT; type: cell-based, human; conditions: donors with strong in vitro responses
Description: PBMCs were thawed and rested overnight. The next day, 9×10^5 cells were plated pr. well. Control and peptide stimulations were performed in at least triplicate. The rest of the protocol was performed as described above.

[3] = system: HLA-A1+, HLA-C7+ or HLA-B8+ cancer cell lines (FM6, FM28, FM82, OCI-M2); test: IFNγ ELISPOT of A2S05-specific T cells with peptide-pulsed cancer cell lines; type: cell-based, human; conditions: for IFNγ ELISPOT reactivity of A2S05-specific T cells to peptide-pulsed HLA-B8+ FM6: metastatic malignant melanoma cell line FM6
Description: Peptide-specific IFNγ secreting cells were calculated by subtracting the average spot count in control wells from the average spot count in peptide-stimulated wells. ELISPOT assays with ARG2-specific T cells (effector cells) and various immune cells or cancer cells as target cells were set up by adding 3×10^4-5×10^4 effector cells to ELISPOT wells followed by 5×10^3-10^4 target cells. Peptide pulsing was performed by incubating the target cells with 20 μM peptide for 1 hour, followed by two washes to remove unbound peptide. Effector cells with added peptide served as the positive control and target cells plated without […] as the negative control. In ELISPOTs assays with immune cells as target cells, wells containing only effector cells were also included as controls. The average spot count from replicate wells was subtracted from the spot count of effector cells plated with the respective target cells.
as §1
FM6 was confirmed to be HLA-B8^+ by flow cytometry and confirmed to express ARG2 by RT-qPCR (FIG. 6).

[4] = system: splenocytes of vaccinated mice; conditions: previously identified by the inventors; cited from earlier work
[5] = system: murine model of lung cancer; conditions: previously shown by the inventors; cited from earlier work
[6] = system: splenocytes of vaccinated mice; test: Murine IFNγ ELISPOT on splenocytes; type: in vivo, C57BL/6 mice; conditions: splenocytes of ARG2-vaccinated Pan02 mice plated with ARG1 peptide
Description: The purity of all synthesized peptides was >90%.
Mice were sacrificed at endpoint for tumor studies and one week after the last vaccination for the remaining studies. Spleens were harvested, smashed through a 70 μm filter, and red blood cells were lysed with Red Blood Cell Lysis Solution (Qiagen). 8×10^5 splenocytes were plated per well in IFNγ ELISPOT plates. IFNγ ELISPOT was performed as previously described. Tumors were harvested, cut into smaller pieces and enzymatically digested in RPMI medium containing 2.1 mg/ml collagenase type 1 (Worthington), 75 μg/ml DNase I (Worthington), 5 mM CaCl2, and 1% P/S. Cells were filtered through a 70 μm cell strainer and red blood cells were lysed as described above. CD45+tumor infiltrating lymphocytes (TILs) were isolated from tumor single-cell suspensions with CD45 microbeads (for MC38 and LL2 tumors) (Miltenyi Biotec) or with CD45 (TIL) microbeads (for B16-F10 tumors) (Miltenyi Biotec). The isolated CD45+ cells were rested overnight. 5×10^5 CD45+ cells were plated per well in IFNγ ELISPOT plates. For phenotyping ARG2 responses, CD8+ and CD4^+ T cells were isolated from the spleen of vaccinated mice with CD8a (Ly-2) and CD4 (L3T4) microbeads (Miltenyi Biotec), respectively, following manufacturer's instruction. Isolated T cells were rested overnight. […]

Sequence: GLLSALDLV (listed as Homo sapiens) [A2S14, human ARG2 positions 287-295]
- IFNγ ELISPOT response, screening [1]: significant responses in PBMCs from three or more donors
- IFNγ ELISPOT response, validation (repetition) [1]: strong IFNγ ELISPOT responses
- T-cell subset that responds (ICS for TNFα and IFNγ) [2]: reaction was from CD4^+ T cells

Sequence: NLIVNPRSV (listed as Homo sapiens) [A2S05, human ARG2 positions 84-92]
- IFNγ ELISPOT response in 17 HDs [1]: only few responses
- donors with statistically significant IFNγ ELISPOT responses ([1]; 38 donors with known HLA-A2 status (13 cancer patients, 25 healthy donors)): 10 out of the 38
- IFNγ ELISPOT response, screening [1]: significant responses in PBMCs from three or more donors
- IFNγ ELISPOT response, validation (repetition) [1]: strong IFNγ ELISPOT responses
- HLA-A2 restriction from donor responses ([1]; responses in both HLA-A2+ and HLA-A2- donors): not HLA-A2 restricted
- specificity of expanded peptide-specific T-cell cultures (ICS for IFNγ and TNF) ([2]; four donors, 16-17 days after expansion): Highly specific CD8+cultures from all four donors
- T-cell subset that responds (ICS for TNFα and IFNγ) [2]: responses were from CD8^+ T-cells
- ex vivo IFNγ ELISPOT response (PBMCs): strong and significant responses in PBMCs ex vivo
- IFNγ ELISPOT reactivity of A2S05-specific T cells to peptide-pulsed HLA-A1+ and HLA-C7+ cell lines ([3]; T cells from HD78 and HD93): no reactivity
- IFNγ ELISPOT reactivity of A2S05-specific T cells to additional HLA-B8+ cell lines ([3]; all four T-cell cultures, FM28, FM82, OCI-M2): reactivity against three additional HLA-B8^+ cell lines
- IFNγ ELISPOT reactivity of A2S05-specific T cells to peptide-pulsed HLA-B8+ FM6 [3]: recognition and reactivity activity
- HLA restriction of the peptide ([3]; recognition and cytolytic activity against HLA-B8+ lines): HLA-B8 restriction

Sequence: LSPPNIVYI (listed as Mus musculus) [mARG2_188-196]
- T-cell responses upon a single vaccination [4]: strong and frequent T-cell responses
- tumor growth in murine model of lung cancer [5]: induced tumor growth delay

Sequence: ISAKDIVYI (listed as Mus musculus) [mARG1_169-177, murine ARG1 peptide from the corresponding region, control for specific recognition]
- cross-reactivity of vaccine-induced responses to ARG1 peptide [6]: no cross-reactivity

Sequence: SLRGSLSRLLQTRVHSILKKSVHSVAVIGAPFS (listed as Homo sapiens) [A2L2, reference compound]
- IFNγ ELISPOT response in 17 HDs [1]: Strong and frequent responses

Sequence: QIVKNPRSV (listed as Homo sapiens) [ARG1_65-73, reference compound]
- IFNγ ELISPOT reactivity of A2S05-specific T cells to peptide-pulsed HLA-B8+ FM6 [3]: lack of reactivity

Sequence: LLSALDLVEV (listed as Homo sapiens) [A2S15, human ARG2 positions 288-297]
- IFNγ ELISPOT response, screening [1]: significant responses in PBMCs from three or more donors
- IFNγ ELISPOT response, validation (repetition) [1]: did not show significant responses
